The values that follow come from US20110065796A1 (SHIRE LLC, priority 2009, published 2011).

Data set [1] in a line: Prodrug stability in simulated gastric fluid. Particulars: 37° C., pH 1.1, HPLC.
Experimental: (§1) The remaining concentrations of the prodrugs were then assayed by H PLC.
The nature of data set [2]: Prodrug stability in simulated intestinal fluid. The note with it: 37° C., pH 6.8, HPLC.
Experimental: as §1

As for `CC(C)[C@@H](N)C(=O)N[C@@H](C(=O)NC(=N)NC(=O)Cc1c(Cl)cccc1Cl)C(C)C` [Compound 54, Guanfacine ((R)-Valine-(R)-Valine) Amide], the “% prodrug remaining following incubation for 1 h in simulated gastric fluid pH 1.1” value in data set [1] is recorded as 73%. Moreover, the “% prodrug remaining following incubation for 2 h in simulated intestinal fluid pH 6.8” value in data set [2] was 66%.
`CC(C)[C@@H](N)C(=O)NCCOC(=O)NC(=N)NC(=O)Cc1c(Cl)cccc1Cl` [Compound 27, Guanfacine (Ethanolamine-(R)-Valine) Carbamate]: the “% prodrug remaining following incubation for 1 h in simulated gastric fluid pH 1.1” value in data set [1] is 78%. Further, the “% prodrug remaining following incubation for 2 h in simulated intestinal fluid pH 6.8” value in data set [2] was 111%.
As to `CC(C)[C@@H](N)C(=O)N[C@H](CCC(=O)NC(=N)NC(=O)Cc1c(Cl)cccc1Cl)C(=O)O` [Compound 31, Guanfacine ((R)-γ-Glutamate (R)-Valine) Amide], in data set [1], the “% prodrug remaining following incubation for 1 h in simulated gastric fluid pH 1.1” value is 70%. Moreover, the “% prodrug remaining following incubation for 2 h in simulated intestinal fluid pH 6.8” value in data set [2] is listed as 85%.
Consider `O=C(O)CC1N=C(NC(=O)Cc2c(Cl)cccc2Cl)NC1=O` (centres unmarked) [Compound 4, Guanfacine Fumaryl Cyclic Adduct], for which the “% prodrug remaining following incubation for 1 h in simulated gastric fluid pH 1.1” value in data set [1] is 97%. The “% prodrug remaining following incubation for 2 h in simulated intestinal fluid pH 6.8” value in data set [2] is on record as 84%.
On to `N=C(NC(=O)Cc1c(Cl)cccc1Cl)NC(=O)O[C@@H]1CN[C@H](C(=O)O)C1` [Compound 14, Guanfacine (S,S)-4-Hydroxyproline Carbamate], for which the “% prodrug remaining following incubation for 1 h in simulated gastric fluid pH 1.1” value in data set [1] is on record as 70%. The “% prodrug remaining following incubation for 2 h in simulated intestinal fluid pH 6.8” value in data set [2] was 108%.
Turning to `N=C(NC(=O)CCNC(=O)[C@@H]1CCC(=O)N1)NC(=O)Cc1c(Cl)cccc1Cl` [Compound 10, Guanfacine (β-Alanine-(S)-Pyroglutamic acid) Amide], the “% prodrug remaining following incubation for 1 h in simulated gastric fluid pH 1.1” value in data set [1] is recorded as 82%. Besides, in data set [2], the “% prodrug remaining following incubation for 2 h in simulated intestinal fluid pH 6.8” value was 112%.
Regarding `CC(C)(CO)[C@@H](O)C(=O)NCCCOC(=O)NC(=N)NC(=O)Cc1c(Cl)cccc1Cl` [Compound 69, Guanfacine Panthenol Carbamate], the “% prodrug remaining following incubation for 1 h in simulated gastric fluid pH 1.1” value in data set [1] is 85%. Moreover, the “% prodrug remaining following incubation for 2 h in simulated intestinal fluid pH 6.8” value in data set [2] is recorded as 96%.
For `CC(=O)N[C@@H](COC(=O)NC(=N)NC(=O)Cc1c(Cl)cccc1Cl)C(=O)O` [Compound 15, Guanfacine Acetyl-(S)-Serine Carbamate], in that order: 83% and 112%.
For `N=C(NC(=O)CC[C@H](NC(=O)c1ccc(C(=O)O)cc1)C(=O)O)NC(=O)Cc1c(Cl)cccc1Cl` [Compound 60, Guanfacine ((S)-γ-Glutamate-Terephthalic acid) Amide], in data set [1], the “% prodrug remaining following incubation for 1 h in simulated gastric fluid pH 1.1” value is on record as 81%. Moreover, the “% prodrug remaining following incubation for 2 h in simulated intestinal fluid pH 6.8” value in data set [2] is 97%.
`N=C(NC(=O)Cc1c(Cl)cccc1Cl)NC(=O)NC(C(=O)O)c1ccccc1` (centres unmarked) [Compound 8, Guanfacine Phenylglycine Urea]: the “% prodrug remaining following incubation for 1 h in simulated gastric fluid pH 1.1” value in data set [1] was 96%. Further, the “% prodrug remaining following incubation for 2 h in simulated intestinal fluid pH 6.8” value in data set [2] is 100%.
On to `N=C(NC(=O)CC[C@H](NC(=O)c1ccc(N)cc1)C(=O)O)NC(=O)Cc1c(Cl)cccc1Cl` [Compound 70, Guanfacine ((S)-γ-Glutamate-PABA) Amide], for which, in data set [1], the “% prodrug remaining following incubation for 1 h in simulated gastric fluid pH 1.1” value is recorded as 64%. Further, the “% prodrug remaining following incubation for 2 h in simulated intestinal fluid pH 6.8” value in data set [2] is 93%.
Taken in the same sequence, the figures for `N=C(NC(=O)Cc1c(Cl)cccc1Cl)NC(=O)OCCNC(=O)[C@@H]1CCC(=O)N1` [Compound 28, Guanfacine (Ethanolamine-(S)-Pyroglutamic acid) Carbamate] were 103% and 106%.
Taken in the same sequence, the figures for `N=C(NC(=O)CCCNC(=O)CC[C@H](N)C(=O)O)NC(=O)Cc1c(Cl)cccc1Cl` [Compound 57, Guanfacine (GABA-(S)-γ-Glutamate) Amide] were 81% and 106%.
Regarding `N=C(NC(=O)Cc1c(Cl)cccc1Cl)NC(=O)Nc1ccc(C(=O)O)cc1` [Compound 53, Guanfacine PABA Urea], the “% prodrug remaining following incubation for 1 h in simulated gastric fluid pH 1.1” value in data set [1] was 101%. Moreover, the “% prodrug remaining following incubation for 2 h in simulated intestinal fluid pH 6.8” value in data set [2] is 100%.
For the compound `N=C(NC(=O)CC[C@H](NC(=O)[C@H](N)CCCCN)C(=O)O)NC(=O)Cc1c(Cl)cccc1Cl` [Compound 43, Guanfacine ((S)-γ-Glutamate-(R)-Lysine) Amide], the “% prodrug remaining following incubation for 1 h in simulated gastric fluid pH 1.1” value in data set [1] is 62%. Moreover, in data set [2], the “% prodrug remaining following incubation for 2 h in simulated intestinal fluid pH 6.8” value is 85%.
Turning to `N=C(NC(=O)Cc1c(Cl)cccc1Cl)NC(=O)OCCNC(=O)CN` [Compound 49, Guanfacine (Ethanolamine-Glycine) Carbamate], the “% prodrug remaining following incubation for 1 h in simulated gastric fluid pH 1.1” value in data set [1] is reported as 87%. Also, in data set [2], the “% prodrug remaining following incubation for 2 h in simulated intestinal fluid pH 6.8” value is recorded as 101%.
For `CC(C)[C@@H]1N=C(NC(=O)Cc2c(Cl)cccc2Cl)NC1=O` [Compound 35, Guanfacine-(S)-Valine Cyclic Adduct], in that order: 83% and 108%.
`CC(C)C[C@@H](N)C(=O)N[C@@H](CCC(=O)NC(=N)NC(=O)Cc1c(Cl)cccc1Cl)C(=O)O` [Compound 42, Guanfacine ((S)-γ-Glutamate-(R)-Leucine) Amide]: the “% prodrug remaining following incubation for 1 h in simulated gastric fluid pH 1.1” value in data set [1] is reported as 70%. For the same compound, the “% prodrug remaining following incubation for 2 h in simulated intestinal fluid pH 6.8” value in data set [2] is recorded as 83%.
Regarding `N=C(NC(=O)CC[C@H](NC(=O)[C@H](N)CO)C(=O)O)NC(=O)Cc1c(Cl)cccc1Cl` [Compound 47, Guanfacine ((S)-γ-Glutamate-(R)-Serine) Amide], the “% prodrug remaining following incubation for 1 h in simulated gastric fluid pH 1.1” value in data set [1] is 72%. The “% prodrug remaining following incubation for 2 h in simulated intestinal fluid pH 6.8” value in data set [2] is reported as 89%.
On to `CNCC(=O)NCCOC(=O)NC(=N)NC(=O)Cc1c(Cl)cccc1Cl` [Compound 71, Guanfacine (Ethanolamine-Sarcosine) Carbamate], for which, in data set [1], the “% prodrug remaining following incubation for 1 h in simulated gastric fluid pH 1.1” value was 91%. In addition, in data set [2], the “% prodrug remaining following incubation for 2 h in simulated intestinal fluid pH 6.8” value is listed as 89%.
As to `CC(C)[C@@H](NC(=O)c1ccc(N)cc1)C(=O)NC(=N)NC(=O)Cc1c(Cl)cccc1Cl` [Compound 55, Guanfacine ((R)-Valine-PABA) Amide], in data set [1], the “% prodrug remaining following incubation for 1 h in simulated gastric fluid pH 1.1” value is on record as 65%. In addition, the “% prodrug remaining following incubation for 2 h in simulated intestinal fluid pH 6.8” value in data set [2] was 91%.
As for `N=C(NC(=O)Cc1c(Cl)cccc1Cl)NC(=O)OC[C@H](NC(=O)[C@@H]1CCC(=O)N1)C(=O)O` [Compound 16, Guanfacine ((S)-Serine-(S)-Pyroglutamic acid) Carbamate], in data set [1], the “% prodrug remaining following incubation for 1 h in simulated gastric fluid pH 1.1” value was 78%. The “% prodrug remaining following incubation for 2 h in simulated intestinal fluid pH 6.8” value in data set [2] is on record as 95%.
With `N=C(NC(=O)Cc1c(Cl)cccc1Cl)NC(=O)OCC[C@H](NC(=O)CCN)C(=O)O` [Compound 67, Guanfacine ((S)- Homoserine-β-Alanine) Carbamate], the “% prodrug remaining following incubation for 1 h in simulated gastric fluid pH 1.1” value in data set [1] was 99%. Also, the “% prodrug remaining following incubation for 2 h in simulated intestinal fluid pH 6.8” value in data set [2] is 97%.
With `N=C(NC(=O)Cc1c(Cl)cccc1Cl)NC(=O)Oc1ccc(C[C@H](N)C(=O)O)cc1` [Compound 13, Guanfacine (S)-Tyrosine Carbamate], in data set [1], the “% prodrug remaining following incubation for 1 h in simulated gastric fluid pH 1.1” value is 74%. Besides, the “% prodrug remaining following incubation for 2 h in simulated intestinal fluid pH 6.8” value in data set [2] is listed as 81%.
Consider `N=C(NC(=O)CCCNC(=O)[C@@H]1CCC(=O)N1)NC(=O)Cc1c(Cl)cccc1Cl` [Compound 23, Guanfacine (GABA-(S)-Pyroglutamic acid) Amide], for which, in data set [1], the “% prodrug remaining following incubation for 1 h in simulated gastric fluid pH 1.1” value is reported as 98%. In addition, the “% prodrug remaining following incubation for 2 h in simulated intestinal fluid pH 6.8” value in data set [2] is listed as 78%.
Take `N=C(NC(=O)Cc1c(Cl)cccc1Cl)NC(=O)OC[C@H](NC(=O)CCN)C(=O)O` [Compound 64, Guanfacine ((S)-Serine-β-Alanine) Carbamate]: the “% prodrug remaining following incubation for 1 h in simulated gastric fluid pH 1.1” value in data set [1] is given as 88%. In addition, the “% prodrug remaining following incubation for 2 h in simulated intestinal fluid pH 6.8” value in data set [2] is given as 93%.
Take `CN1CC(=O)N=C1NC(=O)Cc1c(Cl)cccc1Cl` [Compound 12, Guanfacine-Sarcosine Cyclic Adduct]: in data set [1], the “% prodrug remaining following incubation for 1 h in simulated gastric fluid pH 1.1” value is 48%. For the same compound, the “% prodrug remaining following incubation for 2 h in simulated intestinal fluid pH 6.8” value in data set [2] is recorded as 87%.
On to `CC(C)[C@H](N)C(=O)NCCCC(=O)NC(=N)NC(=O)Cc1c(Cl)cccc1Cl` [Compound 56, Guanfacine (GABA-(S)-Valine) Amide], for which the “% prodrug remaining following incubation for 1 h in simulated gastric fluid pH 1.1” value in data set [1] was 70%. The “% prodrug remaining following incubation for 2 h in simulated intestinal fluid pH 6.8” value in data set [2] is 111%.
For `CC(C)[C@H](N)C(=O)N[C@H](CCC(=O)NC(=N)NC(=O)Cc1c(Cl)cccc1Cl)C(=O)O` [Compound 32, Guanfacine ((R)-γ-Glutamate-(S)-Valine) Amide], in that order: 93% and 84%.
As for `CC(C)(COC(=O)NC(=N)NC(=O)Cc1c(Cl)cccc1Cl)[C@@H](O)C(=O)NCCC(=O)O` [Compound 68, Guanfacine Pantothenic acid Carbamate], the “% prodrug remaining following incubation for 1 h in simulated gastric fluid pH 1.1” value in data set [1] is 86%. Moreover, in data set [2], the “% prodrug remaining following incubation for 2 h in simulated intestinal fluid pH 6.8” value is on record as 75%.
Take `N=C(NC(=O)CC[C@H](NC(=O)[C@@H]1CCC(=O)N1)C(=O)O)NC(=O)Cc1c(Cl)cccc1Cl` [Compound 6, Guanfacine ((S)-γ-Glutamate-(S)-Pyroglutamic acid) Amide]: in data set [1], the “% prodrug remaining following incubation for 1 h in simulated gastric fluid pH 1.1” value is reported as 81%. For the same compound, the “% prodrug remaining following incubation for 2 h in simulated intestinal fluid pH 6.8” value in data set [2] is on record as 98%.
